Tests used:
Format in all cases: in vivo
[1] = system: rat model of chronic pain (L5/L6 spinal nerve ligation); assay: L5/L6 nerve ligation injury, thermal hyperalgesia
Procedure: (§1) Inflammatory (Formalin flinch test) and chronic pain (L5/L6 nerve ligation injury) models were used as assays in both rats and mice.
(§2) Nerve ligation injury was performed according to the method described previously (Kim and Chung). This methodology produces signs of tactile allodynia and thermal hyperalgesia. Rats were anesthetized with halothane and the L5 and L6 spinal nerves were exposed, carefully isolated, and tightly ligated with 4-0 silk suture distal to the dorsal root ganglia (DRG). After ensuring homeostatic stability the wounds were sutured, and the animals were allowed to recover in individual cages. Sham-operated rats were prepared in an identical fashion except that the L5 and L6 spinal nerves were not ligated. Compound 17 was tested in rats after L5/L6 nerve ligation. Compound administration was directly into the hind paw (i.paw) or into the peritoneal cavity (i.p.).

[2] = system: rat model of chronic pain (L5/L6 spinal nerve ligation); assay: L5/L6 nerve ligation injury, tactile allodynia (von Frey)
Procedure: as §1, §2
In the evaluation of the tactile allodynia, the paw withdrawal threshold was determined in response to probing with calibrated von Frey filaments. The rats were kept in suspended cages with wire mesh floors and the von Frey filaments were applied perpendicularly to the planar surface of the paw of the rat until it bent slightly, and was held for 3 to 6 s, or until the paw is withdrawn. […] The 50% paw withdrawal threshold was determined by the nonparametric method. […]

[3] = system: rat model of inflammatory pain (formalin-injected paw); assay: Formalin flinch test; settings: i.p.
Procedure: as §1
Animals are habituated to the their local environment for about 30 min prior to testing. The formalin test is carried out in a 30×30×30 cm chamber with the front and bottom of the chambers made of clear plexi-glass. Mirrors are placed at a 45° angle under the chambers in order to have an un-obstructive view of the paws. Animals are restrained manually and 2% formalin (aq) is injected subcutaneously into the planar surface of the left paw with a 30 gauge needle. The numbers of paw flinches are then recorded in 5 min intervals from the time of injection for a 60 min period. Elevations of the paw, licking and biting of the injected paw were counted as “flinches”. The […] or “first phase” of the nociceptive response peaked at 5 min after formalin injection and the inflammatory or “second phase” peaked at 30 min after formalin injection. The number of flinches in the first 10 min were representative of the […] phase and the number of flinches from 10 min until 60 min were representative of the inflammatory phase. Antinociception for both phase I and phase II was calculated as follows: […]
Potency (A50) is calculated from the full dose response curve for both phase I and phase II.

NC(=O)CCCN(CCCC1CCCCC1)C(=O)Nc1ccccc1 [Compound 17, 4-[1-(3-cyclohexylpropyl)-3-phenylureido]butyramide]
antihyperalgesic response to thermal testing ([1]; 30 μg (in 50 μl) into the paw): 100% | A50 L5/L6 antihyperalgesia ([1]; i.paw): <30 μg/paw | antiallodynic effect ([2]; 100 μg (in 50 μl) into the paw): 90% | A50 L5/L6 antiallodynia ([2]; i.paw): <30 mg/paw | A50 Formalin Phase I ([3]; phase I (first 10 min)): <0.01 mg/kg | A50 Formalin Phase II ([3]; phase II (10-60 min)): 0.01 mg/kg

Source: patent US20100105777A1, “AMIDE OR THIOAMIDE DERIVATIVES AND THEIR USE IN THE TREATMENT OF PAIN” (CARA THERAPEUTICS, INC., priority 2004, published 2010)
